Tests used:
Assay in all cases: MIC, NCCLS broth microdilution
Type in all cases: cell-based
[1] = test system: Enterobacter cloacae B1102
Method: (§1) Antimicrobial activity of the compounds and of their combinations was determined against a selection of organisms according to the standard procedures described by the National Committee for Clinical Laboratory Standards (National Committee for Clinical Laboratory. Standards (2000). Methods for Dilution Antimicrobial Susceptibility Tests for Bacteria That Grow Aerobically-Fifth Edition: Approved Standard M7-A5. NCCLS, Wayne, Pa., USA).
(§2) In all cases the final concentration of DMSO incubated with the bacteria is less than or equal to 1%. […] Plates were incubated overnight at an appropriate temperature (30° C. or 37° C.) and optical densities assessed by eye. The MIC value is defined as the lowest compound concentration completely inhibiting visible growth of the test organism. When combinations between compounds of formula I with compounds of formula II and are evaluated the compounds of formula I are tested in dilution series as described above while the compounds of formula II and III-XIII were present in all wells at a constant concentration of 4 μg/mL each.

[2] = test system: Enterobacter cloacae ATCC13047/CRO-R
Method: as §1, §2

[3] = test system: Enterobacter cloacae M4018
Method: as §2

Enterobacter cloacae MRW = test system: Enterobacter cloacae MRW
Method: as §2

[4] = test system: Enterobacter aerogenes Zayakosky; details: Enterobacter aerogenes Zayakosky
Method: as §1, §2

[5] = test system: Enterobacter aerogenes B1
Method: as §1, §2

Acinetobacter sp. J2 = details: for MIC of antibiotic: antibiotic alone, no inhibitor
Method: as §1, §2

[6] = test system: Pseudomonas aeruginosa MK1184
Method: as §1, §2

[7] = test system: Pseudomonas aeruginosa 1973E
Outline: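 NCCLS M7-A5 microdilution; DMSO ≤1% final; overnight, 30° C. or 37° C.; visual read. MIC = lowest conc. with no visible growth. Combos: formula I titrated, partners fixed at 4 μg/mL each.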

Enterobacter cloacae P99 = test system: Enterobacter cloacae P99
[8] = test system: Klebsiella pneumoniae CF104
Method: as §1, §2

Serratia marcescens S6 = test system: Serratia marcescens S6
[9] = test system: Stenotrophomonas malthophilia 1AC736; details: for MIC of antibiotic: antibiotic alone, no inhibitor
[10] = + compound 323 and clavulanate, 4 mg/L each
[11] = with clavulanate (clavulanic acid)

CC1C(NC(=O)C(=NOCc2cc(=O)c(O)cn2O)c2csc(N)n2)C(=O)N1S(=O)(=O)O (stereo not drawn) [Compound 1]
Minimal Inhibitory Concentration of antibiotic at fixed inhibitor concentration of 4 mg/L ([1]; + clavulanate 4 mg/L): 32 mg/L
Minimal Inhibitory Concentration of antibiotic at fixed inhibitor concentration of 4 mg/L ([1]; + compound 206 4 mg/L): 16 mg/L
Minimal Inhibitory Concentration of antibiotic at fixed inhibitor concentration of 4 mg/L [1, 10]: 8 mg/L
Minimal Inhibitory Concentration of antibiotic at fixed inhibitor concentration of 4 mg/L ([1]; + compound 501 4 mg/L): 16 mg/L
Minimal Inhibitory Concentration of antibiotic ([1]; antibiotic alone): >32 mg/L
Minimal Inhibitory Concentration of antibiotic at fixed inhibitor concentration of 4 mg/L ([2]; + clavulanate 4 mg/L): >32 mg/L
Minimal Inhibitory Concentration of antibiotic at fixed inhibitor concentration of 4 mg/L ([2]; + compound 206 4 mg/L): >32 mg/L
Minimal Inhibitory Concentration of antibiotic at fixed inhibitor concentration of 4 mg/L [2, 10]: 8 mg/L
Minimal Inhibitory Concentration of antibiotic at fixed inhibitor concentration of 4 mg/L ([2]; + compound 501 4 mg/L): >32 mg/L
Minimal Inhibitory Concentration of antibiotic ([2]; antibiotic alone): >32 mg/L
Minimal Inhibitory Concentration of antibiotic at fixed inhibitor concentration of 4 mg/L ([3]; + clavulanate 4 mg/L): >32 mg/L
Minimal Inhibitory Concentration of antibiotic at fixed inhibitor concentration of 4 mg/L ([3]; + compound 206 4 mg/L): 8 mg/L
Minimal Inhibitory Concentration of antibiotic at fixed inhibitor concentration of 4 mg/L [3, 10]: 2 mg/L
Minimal Inhibitory Concentration of antibiotic at fixed inhibitor concentration of 4 mg/L ([3]; + compound 501 4 mg/L): 16 mg/L
Minimal Inhibitory Concentration of antibiotic ([3]; antibiotic alone): 32 mg/L
Minimal Inhibitory Concentration of antibiotic at fixed inhibitor concentration of 4 mg/L (Enterobacter cloacae MRW; + clavulanate 4 mg/L): 32 mg/L
Minimal Inhibitory Concentration of antibiotic at fixed inhibitor concentration of 4 mg/L (Enterobacter cloacae MRW; + compound 206 4 mg/L): 16 mg/L
Minimal Inhibitory Concentration of antibiotic at fixed inhibitor concentration of 4 mg/L (Enterobacter cloacae MRW; [10]): 4 mg/L
Minimal Inhibitory Concentration of antibiotic at fixed inhibitor concentration of 4 mg/L (Enterobacter cloacae MRW; + compound 501 4 mg/L): 32 mg/L
Minimal Inhibitory Concentration of antibiotic (Enterobacter cloacae MRW; antibiotic alone): >32 mg/L
Minimal Inhibitory Concentration of antibiotic at fixed inhibitor concentration of 4 mg/L ([4]; + clavulanate 4 mg/L): >32 mg/L
Minimal Inhibitory Concentration of antibiotic at fixed inhibitor concentration of 4 mg/L ([4]; + compound 206 4 mg/L): >32 mg/L
Minimal Inhibitory Concentration of antibiotic at fixed inhibitor concentration of 4 mg/L [4, 10]: 16 mg/L
Minimal Inhibitory Concentration of antibiotic at fixed inhibitor concentration of 4 mg/L ([4]; + compound 501 4 mg/L): >32 mg/L
Minimal Inhibitory Concentration of antibiotic ([4]; antibiotic alone): >32 mg/L
Minimal Inhibitory Concentration of antibiotic at fixed inhibitor concentration of 4 mg/L ([5]; + clavulanate 4 mg/L): >32 mg/L
Minimal Inhibitory Concentration of antibiotic at fixed inhibitor concentration of 4 mg/L ([5]; + compound 206 4 mg/L): 16 mg/L
Minimal Inhibitory Concentration of antibiotic at fixed inhibitor concentration of 4 mg/L [5, 10]: 4 mg/L
Minimal Inhibitory Concentration of antibiotic at fixed inhibitor concentration of 4 mg/L ([5]; + compound 501 4 mg/L): >32 mg/L
Minimal Inhibitory Concentration of antibiotic ([5]; antibiotic alone): 32 mg/L
MIC of antibiotic (Acinetobacter sp. J2; Acinetobacter baumannii J2): >32 µg/mL
MIC of antibiotic at fixed inhibitor concentration of 4 mg/L (Acinetobacter sp. J2; Acinetobacter baumannii J2, with 111 and clavulanate): 4 µg/mL
MIC of antibiotic at fixed inhibitor concentration of 4 mg/L (Acinetobacter sp. J2; Acinetobacter baumannii J2, with 202 and clavulanate): 4 µg/mL
MIC of antibiotic at fixed inhibitor concentration of 4 mg/L (Acinetobacter sp. J2; Acinetobacter baumannii J2, with 206 and clavulanate): 4 µg/mL
MIC of antibiotic at fixed inhibitor concentration of 4 mg/L (Acinetobacter sp. J2; Acinetobacter baumannii J2, with 323 and clavulanate): 16 µg/mL
MIC of antibiotic at fixed inhibitor concentration of 4 mg/L (Acinetobacter sp. J2; Acinetobacter baumannii J2, with 323 and sulbactam): 1 µg/mL
MIC of antibiotic at fixed inhibitor concentration of 4 mg/L (Acinetobacter sp. J2; Acinetobacter baumannii J2, with 324 and clavulanate): 32 µg/mL
MIC of antibiotic at fixed inhibitor concentration of 4 mg/L (Acinetobacter sp. J2; Acinetobacter baumannii J2, with 501): <0.06 µg/mL
MIC of antibiotic at fixed inhibitor concentration of 4 mg/L (Acinetobacter sp. J2; Acinetobacter baumannii J2, with clavulanate (clavulanic acid)): >32 µg/mL
MIC of antibiotic (Acinetobacter sp. J2; Acinetobacter sp. J2): >32 µg/mL
MIC of antibiotic ([6]; antibiotic alone, no inhibitor): >32 µg/mL
MIC of antibiotic at fixed inhibitor concentration of 4 mg/L ([6]; with 102 and clavulanate): 4 µg/mL
MIC of antibiotic at fixed inhibitor concentration of 4 mg/L ([6]; with 103 and clavulanate): 8 µg/mL
MIC of antibiotic at fixed inhibitor concentration of 4 mg/L ([6]; with 111 and clavulanate): 8 µg/mL
MIC of antibiotic at fixed inhibitor concentration of 4 mg/L ([6]; with 202 and clavulanate): 8 µg/mL
MIC of antibiotic at fixed inhibitor concentration of 4 mg/L ([6]; with 206 and clavulanate): >32 µg/mL
MIC of antibiotic at fixed inhibitor concentration of 4 mg/L ([6]; with 323 and clavulanate): 16 µg/mL
MIC of antibiotic at fixed inhibitor concentration of 4 mg/L ([6]; with 323 and sulbactam): 4 µg/mL
MIC of antibiotic at fixed inhibitor concentration of 4 mg/L ([6]; with 501): >32 µg/mL
MIC of antibiotic at fixed inhibitor concentration of 4 mg/L [6, 11]: >32 µg/mL
MIC of antibiotic ([7]; antibiotic alone, no inhibitor): 16 µg/mL
MIC of antibiotic at fixed inhibitor concentration of 4 mg/L ([7]; with 102 and clavulanate): 2 µg/mL
MIC of antibiotic at fixed inhibitor concentration of 4 mg/L ([7]; with 111 and clavulanate): 4 µg/mL
MIC of antibiotic at fixed inhibitor concentration of 4 mg/L ([7]; with 202 and clavulanate): 4 µg/mL
MIC of antibiotic at fixed inhibitor concentration of 4 mg/L ([7]; with 206 and clavulanate): 4 µg/mL
MIC of antibiotic at fixed inhibitor concentration of 4 mg/L ([7]; with 323 and clavulanate): 8 µg/mL
MIC of antibiotic at fixed inhibitor concentration of 4 mg/L ([7]; with 323 and sulbactam): 4 µg/mL
MIC of antibiotic at fixed inhibitor concentration of 4 mg/L ([7]; with 324 and clavulanate): 8 µg/mL
MIC of antibiotic at fixed inhibitor concentration of 4 mg/L ([7]; with 501): 8 µg/mL
MIC of antibiotic at fixed inhibitor concentration of 4 mg/L [7, 11]: 8 µg/mL
MIC of antibiotic (Enterobacter cloacae P99; antibiotic alone, no inhibitor): >32 µg/mL
MIC of antibiotic at fixed inhibitor concentration of 4 mg/L (Enterobacter cloacae P99; with 102 and clavulanate): 4 µg/mL
MIC of antibiotic at fixed inhibitor concentration of 4 mg/L (Enterobacter cloacae P99; with 111 and clavulanate): 4 µg/mL
MIC of antibiotic at fixed inhibitor concentration of 4 mg/L (Enterobacter cloacae P99; with 202 and clavulanate): 16 µg/mL
MIC of antibiotic at fixed inhibitor concentration of 4 mg/L (Enterobacter cloacae P99; with 206 and clavulanate): 8 µg/mL
MIC of antibiotic at fixed inhibitor concentration of 4 mg/L (Enterobacter cloacae P99; with 323 and clavulanate): 4 µg/mL
MIC of antibiotic at fixed inhibitor concentration of 4 mg/L (Enterobacter cloacae P99; with 323 and sulbactam): 4 µg/mL
MIC of antibiotic at fixed inhibitor concentration of 4 mg/L (Enterobacter cloacae P99; with 324 and clavulanate): 4 µg/mL
MIC of antibiotic at fixed inhibitor concentration of 4 mg/L (Enterobacter cloacae P99; with 501): 16 µg/mL
MIC of antibiotic at fixed inhibitor concentration of 4 mg/L (Enterobacter cloacae P99; [11]): 32 µg/mL
MIC of antibiotic ([8]; antibiotic alone, no inhibitor): >32 µg/mL
MIC of antibiotic at fixed inhibitor concentration of 4 mg/L ([8]; with 102 and clavulanate): 1 µg/mL
MIC of antibiotic at fixed inhibitor concentration of 4 mg/L ([8]; with 111 and clavulanate): <0.06 µg/mL
MIC of antibiotic at fixed inhibitor concentration of 4 mg/L ([8]; with 202 and clavulanate): 2 µg/mL
MIC of antibiotic at fixed inhibitor concentration of 4 mg/L ([8]; with 206 and clavulanate): 0.25 µg/mL
MIC of antibiotic at fixed inhibitor concentration of 4 mg/L ([8]; with 323 and clavulanate): 2 µg/mL
MIC of antibiotic at fixed inhibitor concentration of 4 mg/L ([8]; with 323 and sulbactam): 1 µg/mL
MIC of antibiotic at fixed inhibitor concentration of 4 mg/L ([8]; with 324 and clavulanate): 1 µg/mL
MIC of antibiotic at fixed inhibitor concentration of 4 mg/L ([8]; with 501): 0.5 µg/mL
MIC of antibiotic at fixed inhibitor concentration of 4 mg/L [8, 11]: 0.5 µg/mL
MIC of antibiotic at fixed inhibitor concentration of 4 mg/L (Serratia marcescens S6; with 111 and clavulanate): 0.25 µg/mL
MIC of antibiotic at fixed inhibitor concentration of 4 mg/L (Serratia marcescens S6; with 202 and clavulanate): 0.5 µg/mL
MIC of antibiotic at fixed inhibitor concentration of 4 mg/L (Serratia marcescens S6; with 206 and clavulanate): 4 µg/mL
MIC of antibiotic at fixed inhibitor concentration of 4 mg/L (Serratia marcescens S6; with 323 and clavulanate): 0.25 µg/mL
MIC of antibiotic at fixed inhibitor concentration of 4 mg/L (Serratia marcescens S6; with 323 and sulbactam): 0.5 µg/mL
MIC of antibiotic at fixed inhibitor concentration of 4 mg/L (Serratia marcescens S6; with 324 and clavulanate): 1 µg/mL
MIC of antibiotic at fixed inhibitor concentration of 4 mg/L (Serratia marcescens S6; with 501): 4 µg/mL
MIC of antibiotic at fixed inhibitor concentration of 4 mg/L (Serratia marcescens S6; [11]): 4 µg/mL
MIC of antibiotic ([9]; Stenotrophomonas malthophilia 1AC736): 0.5 µg/mL
MIC of antibiotic ([9]; Stenotrophomonas maltophilia 1AC736): 1 µg/mL
MIC of antibiotic at fixed inhibitor concentration of 4 mg/L ([9]; Stenotrophomonas maltophilia 1AC736, with 102 and sulbactam): 2 µg/mL
MIC of antibiotic at fixed inhibitor concentration of 4 mg/L ([9]; Stenotrophomonas maltophilia 1AC736, with 111 and clavulanate): 0.125 µg/mL
MIC of antibiotic at fixed inhibitor concentration of 4 mg/L ([9]; Stenotrophomonas maltophilia 1AC736, with 202 and clavulanate): 0.125 µg/mL
MIC of antibiotic at fixed inhibitor concentration of 4 mg/L ([9]; Stenotrophomonas maltophilia 1AC736, with 206 and clavulanate): 0.125 µg/mL
MIC of antibiotic at fixed inhibitor concentration of 4 mg/L ([9]; Stenotrophomonas maltophilia 1AC736, with 323 and clavulanate): 0.125 µg/mL
MIC of antibiotic at fixed inhibitor concentration of 4 mg/L ([9]; Stenotrophomonas maltophilia 1AC736, with 323 and sulbactam): 0.125 µg/mL
MIC of antibiotic at fixed inhibitor concentration of 4 mg/L ([9]; Stenotrophomonas maltophilia 1AC736, with 324 and clavulanate): 0.125 µg/mL
MIC of antibiotic at fixed inhibitor concentration of 4 mg/L ([9]; Stenotrophomonas maltophilia 1AC736, with 501): 0.25 µg/mL
MIC of antibiotic at fixed inhibitor concentration of 4 mg/L ([9]; Stenotrophomonas maltophilia 1AC736, with clavulanate (clavulanic acid)): 0.5 µg/mL

Source: patent US20160122320A1, “USEFUL COMBINATIONS OF MONOBACTAM ANTIBIOTICS WITH BETA-LACTAMASE INHIBITORS” (Basilea Pharmaceutica AG, priority 2005, published 2016)
